Results on eight molecules are retold here after publication PMC11892870 (PLOS One, 2025).

Like-named read-outs stand apart in the source and are kept apart here.

The test system of data set [1] is scopolamine-induced amnesic mice. The data set is described as follows: Morris water maze test, scopolamine-induced amnesia. The class given is in vivo.
For data set [2] the test system is unchanged. The data set is described as follows: Modified Y-maze test, scopolamine-induced amnesia. The class given is in vivo.
For data set [3] the test system is unchanged. Nature of the data set: Novel object recognition test, scopolamine-induced amnesia. It is filed as in vivo.
A further data set deals with BChE (Homo sapiens, UniProt P06276). The data set is described as follows: biochemical. The settings on record: mean ± SD, n = 3; read-out: BChE inhibition IC50.
BChE, sequence (P06276 29-602, species assumed): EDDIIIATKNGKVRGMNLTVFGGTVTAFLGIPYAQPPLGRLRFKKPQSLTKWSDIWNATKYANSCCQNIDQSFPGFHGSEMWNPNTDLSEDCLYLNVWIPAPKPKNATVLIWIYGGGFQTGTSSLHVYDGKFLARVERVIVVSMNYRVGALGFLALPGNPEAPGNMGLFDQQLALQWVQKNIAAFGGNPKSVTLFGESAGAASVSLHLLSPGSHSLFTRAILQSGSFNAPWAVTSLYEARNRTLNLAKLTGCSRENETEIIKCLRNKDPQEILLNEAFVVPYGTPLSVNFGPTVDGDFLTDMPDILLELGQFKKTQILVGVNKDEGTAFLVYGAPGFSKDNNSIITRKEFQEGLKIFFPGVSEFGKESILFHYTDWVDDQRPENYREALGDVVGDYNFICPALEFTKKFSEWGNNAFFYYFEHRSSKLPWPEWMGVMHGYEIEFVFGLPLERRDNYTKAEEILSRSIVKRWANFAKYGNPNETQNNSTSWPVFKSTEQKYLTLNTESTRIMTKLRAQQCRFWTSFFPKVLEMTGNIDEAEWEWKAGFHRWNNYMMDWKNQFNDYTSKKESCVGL
Another data set deals with T1, Aβ1-42 fibrils (Homo sapiens, UniProt P05067).
T1 construct: Aβ1-42 was firstly dissolved in HFIP
T1 sequence (P05067 672-713 limits assumed): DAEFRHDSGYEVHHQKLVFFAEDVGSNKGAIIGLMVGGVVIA
The data set is described as follows: biochemical. Conditions: read-out: Aβ destabilization IC50. An excerpt: (§1) Then, the solvent was dried in hood using nitrogen, and reconstituted to working solution with 0.5 M phosphate buffer (pH 7.4).

The nature of the next data set: DPPH radical scavenging. The settings on record: read-out: Antioxidant DPPH IC50. The procedure: (§2) The mixtures were kept in the dark for 30 minutes and then the absorbance was measured at 550 nm. In case of ABTS assay, ABTS radical cation (ABTS • + ) was prepared from a mixture of the ABTS stock solution (7 mM) and potassium persulfate (2.45 mM) in water. The mixture was then kept in the dark for 12-16 hours before use. Then, the ABTS • + solution was diluted in ethanol until the absorbance reached 0.70 ± 0.02 at […].
(§3) Trolox was used as a positive control in both assays, while a mixture of ethanol and DPPH or ABTS • + solution served as the negative control. The percentage inhibition of DPPH and ABTS radicals was calculated using the following equation:
(§4) DPPHandABTSinhibition%=A0−A1/A0×100
(§5) A0 is the absorbance of the control and A1 is the absorbance of the sample.
A general note: Loss of DPPH colour is used to gauge radical scavenging.

Data set [4] in a line: Cytotoxicity in differentiated SH-SY5Y cells, MTT. It is filed as cell-based. The settings on record: human. As for the experimental part:
(§6) Neuroblastoma cells (SH-SY5Y) were maintained in humidified atmosphere at 37 °C with 5%CO2 in DMEM/F12 supplement with 10%FBS. Afterward, cells were treated for 6 days and replaced every 3 days with 1%FBS supplementation and 10 μM of retinoic acid. Cells were seeded (100,000 cells per well) in 96-well microplates and cultured for 48 hours before treatment. […] Cell viability was assessed using MTT assay. Absorbance at 570 nm was measured for both treated and untreated samples, with viability expressed as a percentage relative to the control.

The target in the next data set is T2, Aβ1-42 (Homo sapiens, UniProt P05067).
T2 construct: Aβ1-42 was firstly dissolved in HFIP
T2 sequence (P05067 672-713 limits assumed): as above
The data set is described as follows: Inhibition of Aβ1-42 aggregation (fibril formation), ThT fluorescence. The class given is biochemical.
Excerpt: as §1

A further data set is described as follows: ABTS radical scavenging. The settings on record: read-out: Antioxidant ABTS IC50. As for the experimental part: as §2, §3, §4, §5
For a further data set, the target named is AChE (Homo sapiens, UniProt P22303). The data set is described as follows: biochemical.
AChE, sequence (P22303 32-614): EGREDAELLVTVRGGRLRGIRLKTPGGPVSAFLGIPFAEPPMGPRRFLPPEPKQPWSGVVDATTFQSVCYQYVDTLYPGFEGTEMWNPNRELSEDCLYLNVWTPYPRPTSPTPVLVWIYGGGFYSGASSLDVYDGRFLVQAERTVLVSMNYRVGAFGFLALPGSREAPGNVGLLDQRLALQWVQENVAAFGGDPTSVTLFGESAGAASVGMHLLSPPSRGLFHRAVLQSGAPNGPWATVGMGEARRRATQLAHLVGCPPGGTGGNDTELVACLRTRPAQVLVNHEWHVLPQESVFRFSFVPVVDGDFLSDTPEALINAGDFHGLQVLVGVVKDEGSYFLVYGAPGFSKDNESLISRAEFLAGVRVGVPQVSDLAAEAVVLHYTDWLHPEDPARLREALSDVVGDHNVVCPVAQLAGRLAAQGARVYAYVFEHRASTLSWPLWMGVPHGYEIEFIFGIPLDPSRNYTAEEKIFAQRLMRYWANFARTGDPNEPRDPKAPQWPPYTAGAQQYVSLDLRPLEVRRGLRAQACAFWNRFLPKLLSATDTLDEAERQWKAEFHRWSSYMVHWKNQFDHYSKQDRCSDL
In another data set the test system is male ICR mice. The data set is described as follows: Locomotor activity and spontaneous alternation in Y-maze. It is filed as in vivo. The settings on record: donepezil 3 mg/kg p.o., average of 7 mice. As for the experimental part: Scopolamine was dissolved in NSS. Donepezil and crude extract were dissolved in corn oil. Animal doses were calculated according to mice body weight. […].
Sixty male ICR mice in age 6 weeks (34-44 g) were supplied from Northeast Laboratory Animal Center, KKU. Before conducting the experiments, they were acclimatized for a week with a 12h light-dark cycle and had free access to their diet and water. Their body weight was recorded every day. […] Investigators could not be blinded to the mouse groups due to the difference in code colors. However, the investigators who assessed the mouse’s behavior were blinded to the mouse code for providing unbiased data. The parameters related to behavioral changes were assessed including the number of arm entries, the exploration time spent, and the time spent in a preference quadrant.
Locomotor activity was investigated in a black polyvinyl chamber Y maze. The size of the chamber is 40 cm long, 3 cm wide at the bottom and 10 cm wide at the top, and 12 cm high in each arm. Mice were first allowed to acclimate the chamber and freely moved in Y maze for 8 minutes. After acclimatization, the locomotor activity was measured for 1 hour following the treatment administration. The number of arm entries was recorded from the middle of the maze.

The next data set concerns SH-SY5Y cells. Nature of the data set: Cytotoxicity in differentiated SH-SY5Y cells, MTT. The class given is cell-based. Conditions: 100 µM, SH-SY5Y, MTT, average of 5. The procedure:
as §6

Where [5] appears, read: long-term memory (24 h delay), scopolamine 1 mg/kg i.p. alone.
The mark [6] stands for this setting: short-term memory, scopolamine 1 mg/kg i.p. alone.
Where [7] appears, read: 0.1 µM, SH-SY5Y, MTT, average of 5, read-out: %Cell viability (cytotoxicity).
Setting [8] is: 1 µM, SH-SY5Y, MTT, average of 5, read-out: %Cell viability (cytotoxicity).
Setting [9] is: 10 µM, SH-SY5Y, MTT, average of 5, read-out: %Cell viability (cytotoxicity).
Setting [10] is: 100 µM, SH-SY5Y, MTT, average of 5, read-out: %Cell viability (cytotoxicity).
Where [11] appears, read: read-out: Inhibition of Aβ formation IC50.
Setting [12] is: long-term memory (24 h delay), donepezil 3 mg/kg p.o. + scopolamine 1 mg/kg i.p.
Setting [13] is: short-term memory, donepezil 3 mg/kg p.o. + scopolamine 1 mg/kg i.p.
Setting [14] is: differentiated SH-SY5Y neuroblastoma cells, 0.1 µM, SH-SY5Y, MTT, average of 5, read-out: %Cell viability (cytotoxicity).
The mark [15] stands for this setting: differentiated SH-SY5Y neuroblastoma cells, 1 µM, SH-SY5Y, MTT, average of 5, read-out: %Cell viability (cytotoxicity).
Where [16] appears, read: differentiated SH-SY5Y neuroblastoma cells, 10 µM, SH-SY5Y, MTT, average of 5, read-out: %Cell viability (cytotoxicity).
Where [17] appears, read: differentiated SH-SY5Y neuroblastoma cells, 100 µM, SH-SY5Y, MTT, average of 5, read-out: %Cell viability (cytotoxicity).
Where [18] appears, read: mean ± SD, n = 3, read-out: AChE inhibition IC50.

For the molecule `CN1[C@@H]2C[C@@H](OC(=O)[C@H](CO)c3ccccc3)C[C@H]1[C@@H]1O[C@@H]12` [Scopolamine], the “Time to find the platform, Escape latency” value in data set [1] (acquisition phase Day 1, scopolamine 1 mg/kg i.p. alone) came to 58.43 s; in [1] (acquisition phase Day 2, scopolamine 1 mg/kg i.p. alone), 54.46 s; in [1] (acquisition phase Day 3, scopolamine 1 mg/kg i.p. alone) it was 46.21 s; in data set [1] (acquisition phase Day 4, scopolamine 1 mg/kg i.p. alone), 39.64 s; in data set [1] (acquisition phase Day 5, scopolamine 1 mg/kg i.p. alone) it was 35.04 s. Also, the “%unfamiliar arm exploration” value is recorded as 33.37% in [2] (long-term memory (24 hours), scopolamine 1 mg/kg i.p. alone) and 31.09% in [2] (short-term memory (30 min), scopolamine 1 mg/kg i.p. alone). Also, the results for the “Time spent exploring the familiar object” value in [3] (setting [5]) and in data set [3] (setting [6]) were 43.83 s and 63.40 s, respectively. Also, the “Time spent exploring the novel object” value was found to be 27.21 s in data set [3] (setting [5]) and 46.80 s in data set [3] (setting [6]).
For `COc1ccc(-c2cc(=O)c3c(OC)cc(OC)cc3o2)cc1` [F3, 5,7,4′-trimethoxyflavone], the concentration for half-maximal inhibition (IC50) is 152 ± 6.14 µM at BChE; 39.5 ± 0.61 µM at Aβ1-42 fibrils; over 100 µM in “DPPH radical scavenging”; 91.4 ± 4.67 µM on Aβ1-42 (setting [11]); over 100 µM in “ABTS radical scavenging”; 106 ± 1.14 µM against AChE. In data set [4] (setting [7]), the viability at 0.1 µM amounted to 101%. The viability at 1 µM in [4] (setting [8]) amounted to 102%. The viability at 10 µM in [4] (setting [9]) stood at 102%. Moreover, in data set [4] (setting [10]), the viability at 100 µM turned out to be 95.5%.
In the case of `COc1cc2c(cc1OC)C(=O)C(CC1CCN(Cc3ccccc3)CC1)C2` (stereo not drawn) [Donepezil], the “Time to find the platform, Escape latency” value came out at 59.86 s in data set [1] (acquisition phase Day 1, donepezil 3 mg/kg p.o. + scopolamine 1 mg/kg i.p.); 49.00 s in [1] (acquisition phase Day 2, donepezil 3 mg/kg p.o. + scopolamine 1 mg/kg i.p.); 37.04 s in [1] (acquisition phase Day 3, donepezil 3 mg/kg p.o. + scopolamine 1 mg/kg i.p.); 27.71 s in data set [1] (acquisition phase Day 4, donepezil 3 mg/kg p.o. + scopolamine 1 mg/kg i.p.); 25.57 s in data set [1] (acquisition phase Day 5, donepezil 3 mg/kg p.o. + scopolamine 1 mg/kg i.p.). In data set [1] (probe test day 6, donepezil 3 mg/kg p.o. + scopolamine 1 mg/kg i.p.), the “Time spent in the target quadrant” value is 18.39 s. Further, the “%unfamiliar arm exploration” value in data set [2] (long-term memory (24 hours), donepezil 3 mg/kg p.o. + scopolamine 1 mg/kg i.p.) is given as 39.94%; in data set [2] (short-term memory (30 min), donepezil 3 mg/kg p.o. + scopolamine 1 mg/kg i.p.), 40.79%. Moreover, the “Time spent exploring the familiar object” value in data set [3] (setting [12]) turned out to be 32.11 s; in data set [3] (setting [13]), 52.86 s. Further, the “Time spent exploring the novel object” value in [3] (setting [12]) turned out to be 56.84 s; in [3] (setting [13]), 64.31 s. In addition, in the data set on male ICR mice, the “Locomotor activity, total number of arm entries” value was determined as 23.57.
For `COc1ccc(-c2oc3cc(OC)cc(OC)c3c(=O)c2OC)cc1` [F5, 3,5,7,4′-tetramethoxyflavone], the half-inhibitory concentration (IC50) on BChE is 164 ± 5.13 µM; on Aβ1-42 fibrils it was 51.3 ± 3.13 µM; in “DPPH radical scavenging” it was over 100 µM; against Aβ1-42, 134 ± 5.08 µM; in the data set “ABTS radical scavenging”, over 100 µM; against AChE, 209.1 ± 0.82 µM. In addition, the viability at 0.1 µM in data set [4] (setting [7]) came to 99.9%. For the same molecule, the viability at 1 µM in data set [4] (setting [8]) came to 99.8%. For the same molecule, the viability at 10 µM in [4] (setting [9]) was determined as 98.8%. In addition, the viability at 100 µM in data set [4] (setting [10]) was 102%.
As for `COc1cc(OC)c2c(=O)cc(-c3ccccc3)oc2c1` [F1, 5,7-dimethoxyflavone], the concentration for half-maximal inhibition (IC50) is 92.19 ± 0.69 µM at BChE; 75.9 ± 4.96 µM at Aβ1-42 fibrils; over 100 µM in “DPPH radical scavenging”; 105 ± 1.34 µM at Aβ1-42 (setting [11]); over 100 µM in “ABTS radical scavenging”; 181 ± 2.66 µM on AChE. Further, in [4], the viability at 0.1 µM was 104%. For the same molecule, the viability at 1 µM in data set [4] amounted to 104%. Also, the viability at 10 µM in data set [4] stood at 103%. In addition, the viability at 100 µM in data set [4] came out at 103%.
Turning to `COc1cc(OC)c2c(=O)c(OC)c(-c3ccccc3)oc2c1` [F2, 3,5,7-trimethoxyflavone], the IC50 at BChE was 233 ± 6.89 µM; on Aβ1-42 fibrils, 83.9 ± 1.67 µM; in the data set “DPPH radical scavenging”, over 100 µM; on Aβ1-42 (setting [11]), 87.1 ± 4.51 µM; in “ABTS radical scavenging”, over 100 µM; on AChE (setting [18]), 237.1 ± 2.28 µM. Besides, the “%Cell viability (cytotoxicity)” value in the data set with SH-SY5Y cells is “toxic”. Besides, in data set [4] (setting [14]), the viability at 0.1 µM was 103%. In addition, the viability at 1 µM in data set [4] (setting [15]) was determined as 102%. Also, the viability at 10 µM in data set [4] (setting [16]) turned out to be 102%. Further, in [4] (setting [17]), the viability at 100 µM turned out to be 94%.
Consider `COc1cc(O)c2c(=O)c(OC)c(-c3ccccc3)oc2c1` [F4, 5-hydroxy-3,7-dimethoxyflavone], for which the IC50 was 33.5 ± 2.97 µM on BChE; 63.9 ± 1.83 µM on Aβ1-42 fibrils; over 100 µM in “DPPH radical scavenging”; 97.1 ± 2.38 µM at Aβ1-42 (setting [11]); over 100 µM in the data set “ABTS radical scavenging”; 217.6 ± 1.84 µM on AChE (setting [18]). Besides, in the data set on SH-SY5Y cells, the “%Cell viability (cytotoxicity)” value is recorded as “toxic”. In data set [4] (setting [14]), the viability at 0.1 µM was found to be 102%. In addition, the viability at 1 µM in data set [4] (setting [15]) was found to be 103%. The viability at 10 µM in data set [4] (setting [16]) is 103%. Also, the viability at 100 µM in data set [4] (setting [17]) came to 80.5%.
For `Cc1c(C)c2c(c(C)c1O)CCC(C)(C(=O)O)O2` (stereo not drawn) [Trolox, reference compound], the IC50 in “DPPH radical scavenging” was 24.6 ± 0.39 µM; in “ABTS radical scavenging” it was 81.4 ± 4.67 µM.

What is called IC50 is the midpoint of a concentration-inhibition curve. One may read the viability as a read-out of living cells in per cent, often relative to untreated cells.
